The values that follow come from patent US11584714B2 (priority 2018, dated 2023).

Where a name gives a salt, the structure may show the parent alone. Read-outs that look alike come from different tables or passages of the source.

One may read the Ki as a measure of affinity in units of concentration, obtained from inhibition or displacement.

Holding throughout (type): biochemical
The target of one test is human α-thrombin (Homo sapiens (Human), UniProt P00734). In words: Enzymatic assay for thrombin (Boc-VPR-AMC substrate).
The next test concerns the target MASP-2 (CCP1-CCP2-SP) (Homo sapiens (Human), UniProt O00187). Kind of test: biochemical. The conditions noted are these: for MASP-2 vs. thrombin selectivity: selectivity for MASP-2 inhibition versus thrombin.
Another test addresses mMASP-2 (Mus musculus (Mouse), UniProt Q91WP0). In words: Enzymatic inhibition of mMASP-2. The conditions noted are these: read-out: mMASP-2 Ki.

Chain of mMASP-2 (Q91WP0 20-685): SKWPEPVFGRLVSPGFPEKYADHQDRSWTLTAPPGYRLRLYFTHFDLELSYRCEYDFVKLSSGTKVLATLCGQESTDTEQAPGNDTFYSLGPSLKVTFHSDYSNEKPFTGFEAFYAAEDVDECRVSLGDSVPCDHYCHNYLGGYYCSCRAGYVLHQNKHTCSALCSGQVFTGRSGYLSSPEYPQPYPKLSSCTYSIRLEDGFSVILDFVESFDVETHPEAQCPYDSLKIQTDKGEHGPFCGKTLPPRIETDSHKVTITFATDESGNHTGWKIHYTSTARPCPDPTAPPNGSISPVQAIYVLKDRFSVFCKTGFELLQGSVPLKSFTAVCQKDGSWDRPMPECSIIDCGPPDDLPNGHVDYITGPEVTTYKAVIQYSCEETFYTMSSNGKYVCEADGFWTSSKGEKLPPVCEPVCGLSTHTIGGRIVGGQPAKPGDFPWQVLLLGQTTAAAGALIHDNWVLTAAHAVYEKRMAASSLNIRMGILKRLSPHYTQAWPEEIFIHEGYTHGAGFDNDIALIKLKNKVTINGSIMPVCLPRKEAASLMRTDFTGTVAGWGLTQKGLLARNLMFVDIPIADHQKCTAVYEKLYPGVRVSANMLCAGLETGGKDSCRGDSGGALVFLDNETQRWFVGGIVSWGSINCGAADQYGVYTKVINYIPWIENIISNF
Chain of MASP-2 (CCP1-CCP2-SP) (O00187 445-686): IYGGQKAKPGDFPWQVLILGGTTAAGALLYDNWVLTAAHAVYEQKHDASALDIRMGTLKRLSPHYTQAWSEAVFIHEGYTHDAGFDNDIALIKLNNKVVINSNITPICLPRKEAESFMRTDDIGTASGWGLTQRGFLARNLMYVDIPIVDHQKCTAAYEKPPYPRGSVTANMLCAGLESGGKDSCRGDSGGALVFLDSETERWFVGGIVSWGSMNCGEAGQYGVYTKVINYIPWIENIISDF

Take `Cc1cc(Cl)cc(CNC(=O)[C@H](C)NC(=O)[C@H]2C[C@H](Cc3ccccc3-c3ccc(Cl)s3)CN2)c1O` [compound 1408, (2R,4S)—N—((S)-1-((5-Chloro-2-hydroxy-3-methylbenzyl)amino)-1-oxopropan-2-yl)-4-(2-(5-chlorothiophen-2-yl)benzyl)pyrrolidine-2-carboxamide Hydrochloride]: the Ki is 2.5 to 10 µM at human α-thrombin (Thrombin Ki (μM)), less than 0.5 µM at MASP-2 (CCP1-CCP2-SP) (read-out: MASP-2 Ki) and 2.5 to 10 µM at mMASP-2. For the same molecule, the “MASP-2 vs. thrombin selectivity” value at MASP-2 (CCP1-CCP2-SP) is reported as “** (≥5.0 to <25-fold)”.
Regarding `C[C@H](NC(=O)[C@H]1C[C@H](Cc2ccccc2-c2ccc(Cl)s2)CN1)C(=O)NCc1cc(Cl)ccc1-n1cnnn1` [compound 1409, (2R,4S)—N—((S)-1-((5-Chloro-2-(1H-tetrazol-1-yl)benzyl)amino)-1-oxopropan-2-yl)-4-(2-(5-chlorothiophen-2-yl)benzyl)pyrrolidine-2-carboxamide Trifluoroacetate], the Ki was less than 0.5 µM at human α-thrombin (read-out: Thrombin Ki), less than 0.5 µM at MASP-2 (CCP1-CCP2-SP) (read-out: MASP-2 Ki) and 2.5 to 10 µM at mMASP-2. On MASP-2 (CCP1-CCP2-SP), the “MASP-2 vs. thrombin selectivity” value was “* (≥1.0 to <5.0-fold)”.
For the molecule `Cc1nc(N)ccc1CNC(=O)[C@H](C)NC(=O)[C@H]1C[C@H](Cc2ccccc2-c2ccc(Cl)s2)CN1` [compound 1410, (2R,4S)—N—((S)-1-(((6-Amino-2-methylpyridin-3-yl)methyl)amino)-1-oxopropan-2-yl)-4-(2-(5-chlorothiophen-2-yl)benzyl)pyrrolidine-2-carboxamide Trifluoroacetate], the Ki at human α-thrombin (Thrombin Ki (μM)) is 0.5 to 2.5 µM; at MASP-2 (CCP1-CCP2-SP) (read-out: MASP-2 Ki), less than 0.5 µM; at mMASP-2 it was 0.5 to 2.5 µM. The “MASP-2 vs. thrombin selectivity” value on MASP-2 (CCP1-CCP2-SP) was “*** (≥25 to <100-fold)”.
Take `Cc1nc(N)ccc1CNC(=O)[C@H](C)NC(=O)[C@H]1C[C@@H](c2ccccc2)CCN1CCC(=O)O` [compound 1411, 3-((2R,4S)-2-(((S)-1-(((6-Amino-2-methylpyridin-3-yl)methyl)amino)-1-oxopropan-2-yl)carbamoyl)-4-phenylpiperidin-1-yl)propanoic acid Trifluoroacetate salt]: the Ki on human α-thrombin (read-out: Thrombin Ki) was greater than 25 µM; at MASP-2 (CCP1-CCP2-SP) (read-out: MASP-2 Ki), less than 0.5 µM; on mMASP-2, less than 0.5 µM.
Regarding `Cc1nc(N)ccc1CNC(=O)[C@H](C)NC(=O)[C@H]1C[C@@H](c2ccccc2)CCN1CCCCCC(=O)O` [compound 1412, 6-((2R,4S)-2-(((S)-1-(((6-Amino-2-methylpyridin-3-yl)methyl)amino)-1-oxopropan-2-yl)carbamoyl)-4-phenylpiperidin-1-yl)hexanoic acid Trifluoroacetate salt], the inhibitory constant (Ki) at human α-thrombin (read-out: Thrombin Ki) is greater than 25 µM; on MASP-2 (CCP1-CCP2-SP) (read-out: MASP-2 Ki), less than 0.5 µM; at mMASP-2, 2.5 to 10 µM.
Consider `CC[C@H]1N[C@@H](C(=O)N[C@@H](C)C(=O)NCc2ccc(N)nc2C)C[C@@H]1Cc1ccccc1` [compound 1413, (2R,4S,5R)—N—((S)-1-(((6-Amino-2-methylpyridin-3-yl)methyl)amino)-1-oxopropan-2-yl)-4-benzyl-5-ethylpyrrolidine-2-carboxamide Di-trifluoroacetate salt], for which the results for the Ki on human α-thrombin (read-out: Thrombin Ki), on MASP-2 (CCP1-CCP2-SP) and at mMASP-2 were greater than 25 µM, 0.5 to 2.5 µM and 2.5 to 10 µM, respectively. Also, on MASP-2 (CCP1-CCP2-SP), the “MASP-2 vs. thrombin selectivity” value was “*** (≥25 to <100-fold)”.
As to `C[C@H](NC(=O)[C@H]1C[C@H](c2ccccc2)CN1)C(=O)NCc1cc(Cl)c2[nH]cnc2c1` [compound 1417, (2R,4R)—N—((S)-1-(((7-Chloro-1H-benzo[d]imidazol-5-yl)methyl)amino)-1-oxopropan-2-yl)-4-phenylpyrrolidine-2-carboxamide Trifluoroacetate salt], the figures for the inhibition constant Ki on human α-thrombin (read-out: Thrombin Ki), on MASP-2 (CCP1-CCP2-SP) and on mMASP-2 were greater than 25 µM, 0.5 to 2.5 µM and 2.5 to 10 µM, respectively.
As for `Cc1nc2cc(CNC(=O)[C@H](C)NC(=O)[C@H]3C[C@H](c4ccccc4)CN3)cc(Cl)c2[nH]1` [compound 1418, (2R,4R)—N—((S)-1-(((7-Chloro-2-methyl-1H-benzo[d]imidazol-5-yl)methyl)amino)-1-oxopropan-2-yl)-4-phenylpyrrolidine-2-carboxamide Trifluoroacetate salt], the results for the Ki on human α-thrombin (read-out: Thrombin Ki), on MASP-2 (CCP1-CCP2-SP) and on mMASP-2 were greater than 25 µM, 2.5 to 10 µM and 10 to 25 µM, respectively.
Take `Cc1nc(N)ccc1CNC(=O)[C@H](C)NC(=O)[C@H]1C[C@H](Cc2cccc(C(=O)N3CCC3)c2)CN1` [compound 1420, (2R,4S)—N—((S)-1-(((6-Amino-2-methylpyridin-3-yl)methyl)amino)-1-oxopropan-2-yl)-4-(3-(azetidine-1-carbonyl)benzyl)pyrrolidine-2-carboxamide Di-trifluoroacetate salt]: the values for the inhibition constant Ki on human α-thrombin (Thrombin Ki (μM)), on MASP-2 (CCP1-CCP2-SP) (read-out: MASP-2 Ki) and on mMASP-2 were 2.5 to 10 µM, less than 0.5 µM and less than 0.5 µM, respectively. For the same molecule, on MASP-2 (CCP1-CCP2-SP), the “MASP-2 vs. thrombin selectivity” value was “**** (≥100-fold)”.
Turning to `Cc1nc(N)ccc1CNC(=O)[C@H](C)NC(=O)[C@H]1C[C@H](Cc2cc(Br)no2)CN1` [compound 1421, (2R,4R)—N—((S)-1-(((6-Amino-2-methylpyridin-3-yl)methyl)amino)-1-oxopropan-2-yl)-4-((3-bromoisoxazol-5-yl)methyl)pyrrolidine-2-carboxamide Di-trifluoroacetate salt], the Ki on human α-thrombin (Thrombin Ki (μM)) was 10 to 25 µM; at MASP-2 (CCP1-CCP2-SP) (read-out: MASP-2 Ki) it was less than 0.5 µM; at mMASP-2, 0.5 to 2.5 µM. The “MASP-2 vs. thrombin selectivity” value on MASP-2 (CCP1-CCP2-SP) was “**** (≥100-fold)”.
As for `Cc1nc(N)ccc1CNC(=O)[C@H](C)NC(=O)[C@H]1C[C@H](Cc2cc(C(F)(F)F)cc(C(F)(F)F)c2)CN1` [compound 1424, (2R,4S)—N—((S)-1-(((6-Amino-2-methylpyridin-3-yl)methyl)amino)-1-oxopropan-2-yl)-4-(3,5-bis(trifluoromethyl)benzyl)pyrrolidine-2-carboxamide Di-trifluoroacetate salt], the Ki on human α-thrombin (read-out: Thrombin Ki) is less than 0.5 µM; on MASP-2 (CCP1-CCP2-SP), 0.5 to 2.5 µM; at mMASP-2, 0.5 to 2.5 µM.
On to `C[C@H](NC(=O)[C@H]1C[C@H](c2ccccc2)CN1)C(=O)NCc1ccc2c(N)n[nH]c2c1` [compound 1425, (2R,4R)—N—((S)-1-(((3-Amino-1H-indazol-6-yl)methyl)amino)-1-oxopropan-2-yl)-4-phenylpyrrolidine-2-carboxamide Trifluoroacetate salt], for which the values for the Ki on human α-thrombin (read-out: Thrombin Ki), on MASP-2 (CCP1-CCP2-SP) and at mMASP-2 were greater than 25 µM, 2.5 to 10 µM and 0.5 to 2.5 µM, respectively.
Regarding `C[C@H](NC(=O)[C@H]1C[C@@H](c2ccccc2)CCN1)C(=O)NCc1cc(Cl)ccc1-n1cnnn1` [compound 1426, (2R,4S)—N—((S)-1-((5-Chloro-2-(1H-tetrazol-1-yl)benzyl)amino)-1-oxopropan-2-yl)-4-phenylpiperidine-2-carboxamide Trifluoroacetate], the Ki was 0.5 to 2.5 µM on human α-thrombin (Thrombin Ki (μM)), less than 0.5 µM at MASP-2 (CCP1-CCP2-SP) (read-out: MASP-2 Ki) and 0.5 to 2.5 µM at mMASP-2. Besides, the “MASP-2 vs. thrombin selectivity” value at MASP-2 (CCP1-CCP2-SP) is recorded as “*** (≥25 to <100-fold)”.
For the molecule `Cc1nc(N)ccc1CNC(=O)[C@H](C)NC(=O)[C@H]1C[C@H](Cc2ccc(Cc3ccccc3)cc2)CN1` [compound 1427, (2R,4S)—N—((S)-1-(((6-Amino-2-methylpyridin-3-yl)methyl)amino)-1-oxopropan-2-yl)-4-(4-benzylbenzyl)pyrrolidine-2-carboxamide di-trifluoroacetate salt], the figures for the Ki on human α-thrombin (read-out: Thrombin Ki), at MASP-2 (CCP1-CCP2-SP) (read-out: MASP-2 Ki) and at mMASP-2 were greater than 25 µM, less than 0.5 µM and less than 0.5 µM, respectively. The “MASP-2 vs. thrombin selectivity” value at MASP-2 (CCP1-CCP2-SP) was “**** (≥100-fold)”.
